Our source for the Activity values is ChEMBL document CHEMBL1122528, “Synthesis and evaluation of furan, thiophene, and azole bis[(carbamoyloxy)methyl] derivatives as potential antineoplastic agents” (J Med Chem, 1984).

SMILES strings stand for the structures. Calls of active or inactive are those of the source. No cut-off for these calls is given here.

This assay relates to P388. As to the kind of experiment: Compound was tested for antileukemic activity against murine P388 lymphocytic leukemia; Inactive. The assay is classed as functional, cell-based. The note with it: Mus musculus.
Turning to `CNC(=O)OCc1nc(-c2ccccc2)oc1COC(=O)NC`, the result was inactive.

Consider `CNC(=O)OCc1cn(-c2ccc(Cl)c(Cl)c2)nc1COC(=O)NC`, for which the outcome was inactive.

Take `CNC(=O)OCc1nc(-c2ccccc2)sc1COC(=O)NC`: the result was inactive.

As for `CNC(=O)OCc1c(COC(=O)NC)c(-c2ccc(C)cc2)n(C)c1C`, the result was inactive.

Regarding `CNC(=O)OCc1c(COC(=O)NC)c(C)n(-c2ccccc2)c1C`, the outcome was inactive.

In the case of `CNC(=O)OCc1nnn(-c2ccccc2)c1COC(=O)NC`, the outcome was inactive.

On to `CNC(=O)OCc1snc(-c2ccccc2)c1COC(=O)NC`, for which the outcome was inactive.

`CNC(=O)OCc1c(C)sc(-c2ccccc2)c1COC(=O)NC`: the outcome was inactive.

With `CNC(=O)OCc1onc(-c2ccccc2)c1COC(=O)NC`, the outcome was inactive.
